Data from ChEMBL document CHEMBL3407472, “Multi-parameter optimization of aza-follow-ups to BI 207524, a thumb pocket 1 HCV NS5B polymerase inhibitor. Part 2: Impact of lipophilicity on promiscuity and in vivo toxicity” (Bioorg Med Chem Lett, 2015).

Tested on: Hepatitis C virus
Assay: Antiviral activity against Hepatitis C virus genotype 1b infected in human Huh cells assessed as inhibition of viral replication by RT-PCR-based replicon assay
Format: functional, cell-based, Hepacivirus hominis
Details: not given
An EC50 of 12 nM was found for `CCOc1nc(NC(=O)C(C)(C)NC(=O)c2ccc3c(c2)c(C)c(-c2ccc(F)cn2)n3C2CCCCC2)cnc1/C=C/C(=O)O` in this work. An EC50 of 5 nM was found for `CCOc1nc(NC(=O)C2(NC(=O)c3ccc4c(C5CCCC5)c(-c5cnccn5)n(C)c4c3)CCCC2)cnc1/C=C/C(=O)O` in this work. An EC50 of 9 nM was found for `COc1nc(NC(=O)C2(NC(=O)c3ccc4c(C5CCCC5)c(-c5ncc(Cl)cn5)n(C)c4c3)CCC2)ccc1/C=C/C(=O)O` in this work. An EC50 of 15 nM was found for `COc1nc(NC(=O)C2(NC(=O)c3ccc4c(C5CCCC5)c(-c5ccccn5)n(C)c4c3)CCC2)ccc1/C=C/C(=O)O` in this work. An EC50 of 12 nM was found for `COc1nc(NC(=O)C2(NC(=O)c3ccc4c(C5CCCC5)c(-c5ccc(F)cn5)n(C)c4c3)CCC2)ccc1/C=C/C(=O)O` in this work. An EC50 of 13 nM was found for `COc1nc(NC(=O)C2(NC(=O)c3ccc4c(C5CCCC5)c(-c5cnccn5)n(C)c4c3)CCC2)ccc1/C=C/C(=O)O` in this work. An EC50 of 10 nM was found for `COc1nc(NC(=O)C2(NC(=O)c3ccc4c(c3)c(C)c(-c3ccc(F)cn3)n4C3CCCCC3)CCC2)ccc1/C=C/C(=O)O` in this work. An EC50 of 17 nM was found for `COc1nc(NC(=O)C2(NC(=O)c3ccc4c(c3)c(C)c(-c3ccc(F)cn3)n4C3CCCCC3)CCC2)cnc1/C=C/C(=O)O` in this work. An EC50 of 12 nM was found for `COc1nc(NC(=O)C(C)(C)NC(=O)c2ccc3c(C4CCCC4)c(-c4ccc(F)cn4)n(C)c3c2)ccc1/C=C/C(=O)O` in this work. An EC50 of 23 nM was found for `COc1nc(NC(=O)C(C)(C)NC(=O)c2ccc3c(C4CCCC4)c(-c4cncnc4)n(C)c3c2)ccc1/C=C/C(=O)O` in this work. An EC50 of 17 nM was found for `COc1nc(NC(=O)C(C)(C)NC(=O)c2ccc3c(C4CCCC4)c(-c4ncc(Cl)cn4)n(C)c3c2)cnc1/C=C/C(=O)O` in this work. An EC50 of 14 nM was found for `COc1nc(NC(=O)C2(NC(=O)c3ccc4c(c3)c(C)c(-c3ccc(F)cn3)n4C3CCCCC3)CCCC2)cnc1/C=C/C(=O)O` in this work.

Tested on: not listed separately
Assay: Plasma concentration in rat at 2 mg/kg, po each in 0.5% Methylcellulose and 0.3% Tween-80 and 1% N-methylpyrrolidone after 1 hr
Format: ADME, organism-based
Set-up: dose 2 mg/kg, route oral
Details: not given
A concentration at 1 h of 300 nM was found for `CCOc1nc(NC(=O)C(C)(C)NC(=O)c2ccc3c(c2)c(C)c(-c2ccc(F)cn2)n3C2CCCCC2)cnc1/C=C/C(=O)O` in this work. A concentration at 1 h of 400 nM was found for `CCOc1nc(NC(=O)C2(NC(=O)c3ccc4c(C5CCCC5)c(-c5cnccn5)n(C)c4c3)CCCC2)cnc1/C=C/C(=O)O` in this work.

Tested on: not listed separately
Assay: Lipophilicity, log D of the compound at pH 7.4
Format: physicochemical
Details: buffer
A logD of 3.2 was found for `CCOc1nc(NC(=O)C2(NC(=O)c3ccc4c(C5CCCC5)c(-c5cnccn5)n(C)c4c3)CCCC2)cnc1/C=C/C(=O)O` in this work. A logD of 3.7 was found for `COc1nc(NC(=O)C2(NC(=O)c3ccc4c(C5CCCC5)c(-c5ncc(Cl)cn5)n(C)c4c3)CCC2)ccc1/C=C/C(=O)O` in this work. A logD of 3.5 was found for `COc1nc(NC(=O)C2(NC(=O)c3ccc4c(C5CCCC5)c(-c5ccccn5)n(C)c4c3)CCC2)ccc1/C=C/C(=O)O` in this work. A logD of 4 was found for `COc1nc(NC(=O)C2(NC(=O)c3ccc4c(C5CCCC5)c(-c5ccc(F)cn5)n(C)c4c3)CCC2)ccc1/C=C/C(=O)O` in this work. A logD of 3.3 was found for `COc1nc(NC(=O)C2(NC(=O)c3ccc4c(C5CCCC5)c(-c5cnccn5)n(C)c4c3)CCC2)ccc1/C=C/C(=O)O` in this work. A logD of 4.2 was found for `COc1nc(NC(=O)C2(NC(=O)c3ccc4c(c3)c(C)c(-c3ccc(F)cn3)n4C3CCCCC3)CCC2)ccc1/C=C/C(=O)O` in this work. A logD of 3.3 was found for `COc1nc(NC(=O)C2(NC(=O)c3ccc4c(c3)c(C)c(-c3ccc(F)cn3)n4C3CCCCC3)CCC2)cnc1/C=C/C(=O)O` in this work. A logD of 3.3 was found for `COc1nc(NC(=O)C(C)(C)NC(=O)c2ccc3c(C4CCCC4)c(-c4ccc(F)cn4)n(C)c3c2)ccc1/C=C/C(=O)O` in this work. A logD of 2.2 was found for `COc1nc(NC(=O)C(C)(C)NC(=O)c2ccc3c(C4CCCC4)c(-c4cncnc4)n(C)c3c2)ccc1/C=C/C(=O)O` in this work. A logD of 2.6 was found for `COc1nc(NC(=O)C(C)(C)NC(=O)c2ccc3c(C4CCCC4)c(-c4ncc(Cl)cn4)n(C)c3c2)cnc1/C=C/C(=O)O` in this work. A logD of 3.2 was found for `COc1nc(NC(=O)C2(NC(=O)c3ccc4c(c3)c(C)c(-c3ccc(F)cn3)n4C3CCCCC3)CCCC2)cnc1/C=C/C(=O)O` in this work.

Tested on: not listed separately
Assay: Half life in human liver microsomes at 2 uM
Format: ADME
Details: not given
A half-life at 2 µM of 1.57 h was found for `CCOc1nc(NC(=O)C(C)(C)NC(=O)c2ccc3c(c2)c(C)c(-c2ccc(F)cn2)n3C2CCCCC2)cnc1/C=C/C(=O)O` in this work. A half-life at 2 µM of 1.33 h was found for `CCOc1nc(NC(=O)C2(NC(=O)c3ccc4c(C5CCCC5)c(-c5cnccn5)n(C)c4c3)CCCC2)cnc1/C=C/C(=O)O` in this work. A half-life at 2 µM of 1.27 h was found for `COc1nc(NC(=O)C2(NC(=O)c3ccc4c(C5CCCC5)c(-c5ccccn5)n(C)c4c3)CCC2)ccc1/C=C/C(=O)O` in this work.

Tested on: not listed separately
Assay: Plasma concentration in rat at 2 mg/kg, po each in 0.5% Methylcellulose and 0.3% Tween-80 and 1% N-methylpyrrolidone after 2 hrs
Format: ADME, organism-based
Set-up: dose 2 mg/kg, route oral
Details: not given
A concentration at 2 h of 100 nM was found for `CCOc1nc(NC(=O)C(C)(C)NC(=O)c2ccc3c(c2)c(C)c(-c2ccc(F)cn2)n3C2CCCCC2)cnc1/C=C/C(=O)O` in this work. A concentration at 2 h of 100 nM was found for `CCOc1nc(NC(=O)C2(NC(=O)c3ccc4c(C5CCCC5)c(-c5cnccn5)n(C)c4c3)CCCC2)cnc1/C=C/C(=O)O` in this work.

Tested on: not listed separately
Assay: Lipophilicity, log D of the compound
Format: physicochemical
Details: octanol/water
A logD of 3.2 was found for `CCOc1nc(NC(=O)C2(NC(=O)c3ccc4c(C5CCCC5)c(-c5cnccn5)n(C)c4c3)CCCC2)cnc1/C=C/C(=O)O` in this work. A logD of 3.5 was found for `COc1nc(NC(=O)C2(NC(=O)c3ccc4c(C5CCCC5)c(-c5ccccn5)n(C)c4c3)CCC2)ccc1/C=C/C(=O)O` in this work.

Tested on: Hepatitis C virus
Assay: Antiviral activity against Hepatitis C virus genotype 1a infected in human Huh cells assessed as inhibition of viral replication by RT-PCR-based replicon assay
Format: functional, cell-based, Hepacivirus hominis
Details: subtype 1a
An EC50 of 13 nM was found for `CCOc1nc(NC(=O)C2(NC(=O)c3ccc4c(C5CCCC5)c(-c5cnccn5)n(C)c4c3)CCCC2)cnc1/C=C/C(=O)O` in this work. An EC50 of 62 nM was found for `COc1nc(NC(=O)C2(NC(=O)c3ccc4c(C5CCCC5)c(-c5ncc(Cl)cn5)n(C)c4c3)CCC2)ccc1/C=C/C(=O)O` in this work. An EC50 of 68 nM was found for `COc1nc(NC(=O)C2(NC(=O)c3ccc4c(C5CCCC5)c(-c5ccc(F)cn5)n(C)c4c3)CCC2)ccc1/C=C/C(=O)O` in this work. An EC50 of 46 nM was found for `COc1nc(NC(=O)C2(NC(=O)c3ccc4c(C5CCCC5)c(-c5cnccn5)n(C)c4c3)CCC2)ccc1/C=C/C(=O)O` in this work. An EC50 of 52 nM was found for `COc1nc(NC(=O)C2(NC(=O)c3ccc4c(c3)c(C)c(-c3ccc(F)cn3)n4C3CCCCC3)CCC2)ccc1/C=C/C(=O)O` in this work. An EC50 of 310 nM was found for `COc1nc(NC(=O)C2(NC(=O)c3ccc4c(c3)c(C)c(-c3ccc(F)cn3)n4C3CCCCC3)CCC2)cnc1/C=C/C(=O)O` in this work. An EC50 of 67 nM was found for `COc1nc(NC(=O)C(C)(C)NC(=O)c2ccc3c(C4CCCC4)c(-c4ccc(F)cn4)n(C)c3c2)ccc1/C=C/C(=O)O` in this work. An EC50 of 72 nM was found for `COc1nc(NC(=O)C(C)(C)NC(=O)c2ccc3c(C4CCCC4)c(-c4cncnc4)n(C)c3c2)ccc1/C=C/C(=O)O` in this work. An EC50 of 270 nM was found for `COc1nc(NC(=O)C(C)(C)NC(=O)c2ccc3c(C4CCCC4)c(-c4ncc(Cl)cn4)n(C)c3c2)cnc1/C=C/C(=O)O` in this work. An EC50 of 54 nM was found for `COc1nc(NC(=O)C2(NC(=O)c3ccc4c(c3)c(C)c(-c3ccc(F)cn3)n4C3CCCCC3)CCCC2)cnc1/C=C/C(=O)O` in this work.

Tested on: not listed separately
Assay: Half life in rat liver microsomes at 2 uM
Format: ADME
Details: not given
A half-life at 2 µM of 1.28 h was found for `CCOc1nc(NC(=O)C(C)(C)NC(=O)c2ccc3c(c2)c(C)c(-c2ccc(F)cn2)n3C2CCCCC2)cnc1/C=C/C(=O)O` in this work. A half-life at 2 µM greater than 5 h was found for `CCOc1nc(NC(=O)C2(NC(=O)c3ccc4c(C5CCCC5)c(-c5cnccn5)n(C)c4c3)CCCC2)cnc1/C=C/C(=O)O` in this work. A half-life at 2 µM of 0.167 h was found for `COc1nc(NC(=O)C2(NC(=O)c3ccc4c(C5CCCC5)c(-c5ccccn5)n(C)c4c3)CCC2)ccc1/C=C/C(=O)O` in this work.
